Results as given in US6365759B1, “Intermediate compounds for preparing macrocylcic analogs” (Eisai Co., Ltd., priority 1998, dated 2002).
Read-outs that look alike come from different tables or passages of the source.

Assays:
[1] = system: DLD-1 human colon cancer cells; assay: in vitro cell growth inhibition assay using DLD-1 cells; assay type: cell-based
[2] = system: U937 human histiocytic lymphoma cells; assay: U937 Mitotic Block Reversibility Assay; assay type: cell-based; details: for reversibility of induced mitotic blocks: blocks sustained 10 hour after drug washout
[3] = in vitro cell growth inhibition, DLD-1 human colon cancer cells, read-out: DLD-1 mean IC50
[4] = Homo sapiens, DLD-1, read-out: DLD-1 mean IC50

SMILES | Reversibility Ratio [2] | IC50 [1, 4] | Complete Mitotic Block 0 hour [2] | Complete Mitotic Block 10 hour [2] | IC50 ([1]; read-out: DLD-1 mean IC50) | further results
C=C1CC2CCC34CC5OC6C(OC7CCC(CC(=O)C[C@H]8C(CC9OC(CCC1O2)CC(C)C9=C)OC(CC(O)CO)C8OC)OC7C6O3)C5O4 (some centres unmarked) [Compound B1793] | 14.7 | – | – | – | – | IC50 [1, 3]: 0.93 nM; Complete Mitotic Block 10 hour ([2]; after washout, 12 h pretreatment, U937 cells): 44 nM; Complete Mitotic Block 0 hour ([2]; before washout, 12 h pretreatment, U937 cells): 3 nM
C=C1CC2CCC34CC5OC6C(OC7CCC(CC(=O)CC8C(CC9OC(CCC1O2)CC(C)C9=C)OC(CC(O)CO)C8OC)OC7C6O3)C5O4 (centres unmarked) [Compound B1794] | – | – | – | – | – | IC50 [1, 3]: 12.2 nM
C=C1CC2CCC34CC5OC6C(OC7CCC(CC(=O)CC8C(CC9OC(CCC1O2)CC(C)C9=C)OC(CC(O)CN=[N+]=[N-])C8OC)OC7C6O3)C5O4 (centres unmarked) [Compound B1922] | 10.0 | 0.53 nM | 3 nM | 30 nM | – | –
C=C1CC2CCC34CC5OC6C(OC7CCC(CC(=O)CC8C(CC9OC(CCC1O2)CC(C)C9=C)OC(CC(O)CNC(=O)C(=O)c1ccccc1)C8OC)OC7C6O3)C5O4 (centres unmarked) [Compound B1930] | – | – | – | – | 0.87 nM | –
C=C1CC2CCC34CC5OC6C(OC7CCC(CC(=O)CC8C(CC9OC(CCC1O2)CC(C)C9=C)OC(CC(=O)CO)C8OC)OC7C6O3)C5O4 (centres unmarked) [Compound B1934] | 10.0 | 1.05 nM | 3 nM | 30 nM | – | –
C=C1CC2CCC34CC5OC6C(OC7CCC(CC(=O)CC8C(CC9OC(CCC1O2)CC(C)C9=C)OC(CC(O)CNC(=O)Cc1cccnc1)C8OC)OC7C6O3)C5O4 (centres unmarked) [Compound B1940] | – | – | – | – | 5.43 nM | –
C=C1CC2CCC34CC5OC6C(OC7CCC(CC(=O)CC8C(CC9OC(CCC1O2)CC(C)C9=C)OC(CC(O)CNC(=O)Cc1ccccc1)C8OC)OC7C6O3)C5O4 (centres unmarked) [Compound B1973] | – | – | – | – | 1.15 nM | –
C=C1CC2CCC34CC5OC6C(OC7CCC(CC(=O)CC8C(CC9OC(CCC1O2)CC(C)C9=C)OC(CC(O)COC(=O)Nc1ccccc1)C8OC)OC7C6O3)C5O4 (centres unmarked) [Compound B1984] | – | – | – | – | 1.01 nM | –
C=C1CC2CCC34CC5OC6C(OC7CCC(CC(=O)CC8C(CC9OC(CCC1O2)CC(C)C9=C)OC(CC(O)CNC(=O)C(=O)c1c[nH]c2ccccc12)C8OC)OC7C6O3)C5O4 (centres unmarked) [Compound B1987] | – | – | – | – | 1.82 nM | –
C=C1CC2CCC34CC5OC6C(OC7CCC(CC(=O)CC8C(CC9OC(CCC1O2)CC(C)C9=C)OC(CC(=O)CNC(=O)C(=O)c1ccccc1)C8OC)OC7C6O3)C5O4 (centres unmarked) [Compound B1988] | – | 2.67 nM | – | – | – | –
C=C1CC2CCC34CC5OC6C(OC7CCC(CC(=O)CC8C(CC9OC(CCC1O2)CC(C)C9=C)OC(CC(O)COC(=O)Nc1ccc(Cl)cc1)C8OC)OC7C6O3)C5O4 (centres unmarked) [Compound B1990] | – | – | – | – | 1.3 nM | –
C=C1CC2CCC34CC5OC6C(OC7CCC(CC(=O)CC8C(CC9OC(CCC1O2)CC(C)C9=C)OC(CC(O)CNC(=O)c1ccc(Cl)cc1)C8OC)OC7C6O3)C5O4 (centres unmarked) [Compound B1991] | – | – | – | – | 0.69 nM | –
C=C1CC2CCC34CC5OC6C(OC7CCC(CC(=O)CC8C(CC9OC(CCC1O2)CC(C)C9=C)OC(CC(O)COC(=O)Nc1ccc(OC)cc1)C8OC)OC7C6O3)C5O4 (centres unmarked) [Compound B1992] | – | – | – | – | 0.86 nM | –
C=C1CC2CCC34CC5OC6C(OC7CCC(CC(=O)CC8C(CC9OC(CCC1O2)CC(C)C9=C)OC(CC(O)CNC(=O)C(=O)c1cc(OC)c(OC)c(OC)c1)C8OC)OC7C6O3)C5O4 (centres unmarked) [Compound B2003] | – | – | – | – | 1.21 nM | –
C=C1CC2CCC34CC5OC6C(OC7CCC(CC(=O)CC8C(CC9OC(CCC1O2)CC(C)C9=C)OC(CC(O)CNC(=O)c1cc(OC)c(OC)c(OC)c1)C8OC)OC7C6O3)C5O4 (centres unmarked) [Compound B2004] | – | – | – | – | 0.63 nM | –
C=C1CC2CCC34CC5OC6C(OC7CCC(CC(=O)CC8C(CC9OC(CCC1O2)CC(C)C9=C)OC(CC(O)COCc1ccc(F)cc1)C8OC)OC7C6O3)C5O4 (centres unmarked) [Compound B2014] | – | 0.87 nM | – | – | – | –
C=C1CC2CCC34CC5OC6C(OC7CCC(CC(=O)CC8C(CC9OC(CCC1O2)CC(C)C9=C)OC(CC(CO)OCc1ccc(F)cc1)C8OC)OC7C6O3)C5O4 (centres unmarked) [Compound B2015] | – | 2.78 nM | – | – | – | –
C=CC(F)(F)C(O)CC1OC2CC3OC(CCC4OC(CCC56CC7OC8C(OC9CCC(CC(=O)CC2C1OC)OC9C8O5)C7O6)CC4=C)CC(C)C3=C (centres unmarked) [Compound B2035] | – | 0.76 nM | – | – | – | –
C=C1C[C@@H]2CCC34CC5OC6C(OC7CCC(CC(=O)CC8C(CC9OC(CCC1O2)CC(C)C9=C)OC(CCO)C8OC)OC7C6O3)C5O4 (some centres unmarked) [Compound B2037] | – | 0.66 nM | – | – | – | –

SMILES | Reversibility Ratio [2] | IC50 [1, 4] | Complete Mitotic Block 0 hour [2] | Complete Mitotic Block 10 hour [2] | IC50 ([1]; read-out: DLD-1 mean IC50) | further results
C=C1CC2CCC34CC5OC6C(OC7CCC(CC(=O)CC8C(CC9OC(CCC1O2)CC(C)C9=C)OC(CC(O)CC(O)CO)C8OC)OC7C6O3)C5O4 (centres unmarked) [Compound B2086] | – | 11.2 nM | – | – | – | –
C=C1CC2CCC34CC5OC6C(OC7CCC(CC(=O)CC8C(CC9OC(CCC1O2)CC(C)C9=C)OC(C(O)CO)C8C)OC7C6O3)C5O4 (centres unmarked) [Compound B2090] | – | 0.52 nM | – | – | – | –
C=C1CC2CCC34CC5OC6C(OC7CCC(CC(=O)CC8C(CC9OC(CCC1O2)CC(C)C9=C)OC(CC(O)CCO)C8OC)OC7C6O3)C5O4 (centres unmarked) [Compound B2091] | 10.0 | 1.36 nM | 3 nM | 30 nM | – | –
C=C1CC2CCC34CC5OC6C(OC7CCC(CC(=O)CC8C(CC9OC(CCC1O2)CC(C)C9=C)OC(C(O)CN)C8C)OC7C6O3)C5O4 (centres unmarked) [Compound B2136] | 1.0 | 5.23 nM | 3 nM | 3 nM | – | –
C=C1C[C@@H]2CCC34CC5OC6C(OC7CCC(CC(=O)CC8C(CC9OC(CCC1O2)CC(C)C9=C)OC(CC(O)COS(C)(=O)=O)C8OC)OC7C6O3)C5O4 (some centres unmarked) [Compound B2294] | – | 0.8 nM | – | – | – | –
C=C1CC2CCC34CC5OC6C(OC7CCC(CC(=O)CC8C(CC9OC(CCC1O2)CC(C)C9=C)OC(CC(O)CN(C)C)C8OC)OC7C6O3)C5O4 (centres unmarked) [Compound B2320] | 10.0 | – | 1 nM | 10 nM | 1.2 nM | –
C=C1CC2CCC34CC5OC6C(OC7CCC(CC(=O)CC8C(CC9OC(CCC1O2)CC(C)C9=C)OC(CC(O)CNC(C)C)C8OC)OC7C6O3)C5O4 (centres unmarked) [Compound B2330] | 1.0 | – | 7 nM | 7 nM | 4.4 nM | –
C=C1C[C@@H]2CC[C@@]34C[C@H]5O[C@H]6[C@@H](O3)[C@H]3O[C@H](CC[C@@H]3O[C@@H]6[C@H]5O4)CC(=O)C[C@@H]3[C@@H](OC)[C@@H](C[C@H](O)CNC)O[C@H]3C[C@H]3O[C@@H](CC[C@@H]1O2)C[C@@H](C)C3=C [Compound B2336] | 1.0 | – | 10 nM | 10 nM | 3.33 nM | –
C=C1CC2CCC34CC5OC6C(OC7CCC(CC(=O)CC8C(CC9OC(CCC1O2)CC(C)C9=C)OC(CC(O)CNC(C)(C)C)C8OC)OC7C6O3)C5O4 (centres unmarked) [Compound B2339] | 1.0 | – | 3 nM | 3 nM | 4.3 nM | –
C=C1CC2CCC34CC5OC6C(OC7CCC(CC(=O)CC8C(CC9OC(CCC1O2)CC(C)C9=C)OC(CC(O)CNCCO)C8OC)OC7C6O3)C5O4 (centres unmarked) [Compound B2417] | 1.0 | – | 10 nM | 10 nM | 12.7 nM | –
C=C1CC2CCC34CC5OC6C(OC7CCC(CC(=O)CC8C(CC9OC(CCC1O2)CC(C)C9=C)OC(CC(O)CN1CCNCC1)C8OC)OC7C6O3)C5O4 (centres unmarked) [Compound B2418] | 1.0 | – | 10 nM | 10 nM | 3.63 nM | –
C=C1CC2CCC34CC5OC6C(OC7CCC(CC(=O)CC8C(CC9OC(CCC1O2)CC(C)C9=C)OC(CC(O)CN(CCO)CCO)C8OC)OC7C6O3)C5O4 (centres unmarked) [Compound B2489] | 1.0 | – | 10 nM | 10 nM | 14.7 nM | –
C=C1CC2CCC34CC5OC6C(OC7CCC(CC(=O)CC8C(CC9OC(CCC1O2)CC(C)C9=C)OC(CC(O)CNC(CO)CO)C8OC)OC7C6O3)C5O4 (centres unmarked) [Compound B2490] | 1.0 | – | 100 nM | 100 nM | 35.7 nM | –
C=C1CC2CCC34CC5OC6C(OC7CCC(CC(=O)CC8C(CC9OC(CCC1O2)CC(C)C9=C)OC(CC(O)CNCc1ccccc1)C8OC)OC7C6O3)C5O4 (centres unmarked) [Compound B2491] | 6.7 | – | 2 nM | 10 nM | 0.92 nM | –
C=C1CC2CCC34CC5OC6C(OC7CCC(CC(=O)CC8C(CC9OC(CCC1O2)CC(C)C9=C)OC(CC(O)CN1CCCCC1)C8OC)OC7C6O3)C5O4 (centres unmarked) [ER803834] | 10.0 | – | 1 nM | 10 nM | 0.47 nM | –
C=C1CC2CCC34CC5OC6C(OC7CCC(CC(=O)CC8C(CC9OC(CCC1O2)CC(C)C9=C)OC(CC(O)CN1CCCC1)C8OC)OC7C6O3)C5O4 (centres unmarked) [ER803835] | 1.0 | – | 10 nM | 10 nM | 15.3 nM | –
CC[C@]1(O)C[C@@H]2CN(CCc3c([nH]c4ccccc34)[C@@](C(=O)OC)(c3cc4c(cc3OC)N(C)[C@H]3[C@@](O)(C(=O)OC)[C@H](OC(C)=O)[C@]5(CC)C=CCN6CC[C@]43[C@@H]65)C2)C1 [Vinblastine, reference compound] | – | – | – | – | – | Reversibility ratio ([2]; Table 2): 60; Drug concentration required for complete mitotic block, 0 hour (before washout) ([2]; Table 2, U937 cells): 10 nM; Drug concentration required for complete mitotic block, 10 hour (after washout) ([2]; Table 2, U937 cells): 600 nM; reversibility of induced mitotic blocks [2]: highly reversible
CC[C@]1(O)C[C@H]2CN(CCc3c([nH]c4ccccc34)[C@@](C(=O)OC)(c3cc4c(cc3OC)N(C=O)[C@H]3[C@@](O)(C(=O)OC)[C@H](OC(C)=O)[C@]5(CC)C=CCN6CC[C@]43[C@@H]65)C2)C1 [Vincristine, reference compound] | – | – | – | – | – | Reversibility ratio ([2]; Table 2): 1; Drug concentration required for complete mitotic block, 0 hour (before washout) ([2]; Table 2, U937 cells): 10 nM; Drug concentration required for complete mitotic block, 10 hour (after washout) ([2]; Table 2, U937 cells): 10 nM; Interpretation ([2]; Table 2, reversibility of mitotic block): Irreversible; reversibility of induced mitotic blocks [2]: irreversible
